The source of these data is US6015822A, “Sulfonamide-substituted fused 5-membered ring compounds, their use as a medicament, and pharmaceutical preparations comprising them” (Hoechst Marion Roussel Deutschland GmbH, priority 1997, dated 2000).

In this experiment the target is T1, human IsK protein (UniProt P15382+P70057).
T1 construct: expressed in transfected cells; host or cells: Xenopus laevis oocytes injected with in vitro synthesized IsK RNA
T1 sequence (P70057 whole entry): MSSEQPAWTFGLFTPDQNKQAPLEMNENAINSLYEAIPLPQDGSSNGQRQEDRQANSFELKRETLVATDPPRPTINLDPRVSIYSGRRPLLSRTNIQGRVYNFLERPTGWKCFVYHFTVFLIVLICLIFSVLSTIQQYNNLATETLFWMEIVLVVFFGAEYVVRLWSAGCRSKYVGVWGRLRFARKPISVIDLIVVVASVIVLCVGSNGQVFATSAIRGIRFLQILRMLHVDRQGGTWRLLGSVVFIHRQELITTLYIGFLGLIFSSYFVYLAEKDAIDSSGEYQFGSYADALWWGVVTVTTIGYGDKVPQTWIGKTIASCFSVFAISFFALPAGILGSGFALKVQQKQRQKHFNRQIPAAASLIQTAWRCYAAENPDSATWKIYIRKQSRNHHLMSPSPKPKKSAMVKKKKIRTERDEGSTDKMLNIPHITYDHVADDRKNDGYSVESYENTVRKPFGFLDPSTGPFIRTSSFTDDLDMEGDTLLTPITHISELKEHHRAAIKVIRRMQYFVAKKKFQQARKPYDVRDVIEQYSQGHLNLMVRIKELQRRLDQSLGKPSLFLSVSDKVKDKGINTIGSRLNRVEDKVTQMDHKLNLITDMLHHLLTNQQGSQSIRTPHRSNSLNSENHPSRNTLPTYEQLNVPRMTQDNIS
Nature of the experiment: Inhibition of IsK current in Xenopus oocytes expressing human IsK (two microelectrode voltage clamp). The experiment is classed as cell-based. The note with it: human IsK expressed in Xenopus oocytes; voltage jumps to -10 mV lasting 15 s; pH 7.5; room temperature; extrapolated using the Hill equation; read-out: IC-50 (inhibition of IsK control current). The method, then: IsK channels from man, rat or guinea-pig were expressed in Xenopus oocytes. To do this, oocytes were first isolated from Xenopus Laevis and defolliculated. IsK -encoding RNA synthesized in vitro was then injected into these oocytes. After IsK protein expression for 2-8 days, IsK currents were measured in the oocytes using the two microelectrode voltage clamp technique. The IsK channels were in this case as a rule activated using voltage jumps to -10 mV lasting 15 s. The bath was irrigated with a solution of the following composition: NaCl 96 mM, KCl 2 mM, CaCl2 1.8 mM, MgCl2 1 mM, HEPES 5 mM (titrated with NaOH to pH 7.5). These experiments were carried out at room temperature. The following were employed for acquiring data and analysis: Geneclamp amplifier (Axon Instruments, Foster City, U.S.A.) and MacLab D/A converter and software (ADInstruments, Castle Hill, Australia). The substances according to the invention were tested by adding them to the bath solution in different concentrations. The effects of the substances were calculated as the percentage inhibition of the IsK control current, which was obtained when no substance was added to the solution. The data were then extrapolated using the Hill equation in order to determine the inhibitory concentrations IC50 for the respective substances.
In the described manner, using the human IsK protein, the following IC50 values were determined for the compounds according to the invention: […]
For `CCS(=O)(=O)N(C)C1CC(C)(C)c2ccccc21` (stereo not shown) [Example 2, 3,3-Dimethyl-1-(N-ethylsulfonyl-N-methyl)aminoindan], the IC50 is roughly 15000 nM.

With `CCCCCCN(C1CC(C)(C)c2ccccc21)S(C)(=O)=O` (stereo not shown) [Example 3, 3,3-Dimethyl-1-(N-hexyl-N-methylsulfonyl)aminoindan], the IC50 is less than 10000 nM. As to `CCCCN(C1CS(=O)(=O)c2ccccc21)S(C)(=O)=O` (stereo not shown) [Example 5, N-Butyl-N-(1,1-dioxo-2,3-dihydro-1H-benzo[b]thiophen-3-yl)-methanesulfonamide], the IC50 was greater than 10000 nM.

Take `CCCCN(C1CC(C)(C)c2ccc([N+](=O)[O-])cc21)S(C)(=O)=O` (stereo not shown) [Example 11, 3,3-Dimethyl-6-nitro-1-(N-butyl-N-methylsulfonyl)aminoindan]: the IC50 was 2700 nM. In the case of `CC1(C)CC(N(Cc2ccncc2)S(C)(=O)=O)c2cc([N+](=O)[O-])ccc21` (stereo not shown) [Example 12, 3,3-Dimethyl-6-nitro-1-[N-(4-pyridylmethyl)-N-methylsulfonyl]aminoindan] it was roughly 2000 nM.

With `CCCCOc1ccc2c(c1)C(N(C)S(C)(=O)=O)CC2(C)C` (stereo not shown) [Example 13, 6-Butoxy-3,3-dimethyl-1-(N-methyl-N-methylsulfonyl)aminoindan], the IC50 was 1200 nM. The same measure for `CCCCOc1ccc2c(c1)C(N(CC)S(C)(=O)=O)CC2(C)C` (stereo not shown) [Example 14, 6-Butoxy-3,3-dimethyl-1-(N-ethyl-N-methylsulfonyl)aminoindan]: 440 nM.
